Consider four compounds from patent publication US20260364215A1, “Radiopharmaceutical Compositions Targeting Ephrin Type-A Receptor 2 and Uses Thereof” (PeptiDream Inc., priority 2022, published 2026).

Molecules are shown by their SMILES. Numbered stars: 1 amine (or outer) side, 2 acyl side, 3 side chain; on linkers, the order of the positions; unused ones are H or OH. Bridge positions count the residues as written; N and C are the ends. Square brackets hold non-standard residues; d marks the D form. Side chains are listed from the residue outwards. Peptide text beside a SMILES is read from it. * marks the point of attachment. DOTA(Lu) = O=C1CN2CCN3CCN(CC(=O)*)CCN(CC2)CC(=O)[O][Lu]([O]1)[O]C(=O)C3; DOTA = O=C(O)CN1CCN(CC(=O)O)CCN(CC(=O)*)CCN(CC(=O)O)CC1; Trp(1-Me,7-Cl) = Cn1cc(C[C@H](N)C(=O)O)c2cccc(Cl)c21; dPhe(3-CONH2) = NC(=O)c1cccc(C[C@@H](N)C(=O)O)c1; Piperazinyl(4-CH2COOH) = O=C(O)CN1CCN(*)CC1; Trp(1-Me) = Cn1cc(C[C@H](N)C(=O)O)c2ccccc21; NMe3Pal = CN[C@@H](Cc1cccnc1)C(=O)O; hArg = N=C(N)NCCCC[C@H](N)C(=O)O; Gly(cBu) = N[C@H](C(=O)O)C1CCC1; NMeE = CN[C@@H](CCC(=O)O)C(=O)O; Aad = N[C@@H](CCCC(=O)O)C(=O)O; CO = O=C([*:1])[*:2] Bounds are passed on as bounds.

The target of data set [1] is T1, Recombinant Human EphA2 Fc Protein (Homo sapiens, UniProt P29317).
T1 construct: purchased Elabscience
T1 sequence (P29317 24-534 limits assumed): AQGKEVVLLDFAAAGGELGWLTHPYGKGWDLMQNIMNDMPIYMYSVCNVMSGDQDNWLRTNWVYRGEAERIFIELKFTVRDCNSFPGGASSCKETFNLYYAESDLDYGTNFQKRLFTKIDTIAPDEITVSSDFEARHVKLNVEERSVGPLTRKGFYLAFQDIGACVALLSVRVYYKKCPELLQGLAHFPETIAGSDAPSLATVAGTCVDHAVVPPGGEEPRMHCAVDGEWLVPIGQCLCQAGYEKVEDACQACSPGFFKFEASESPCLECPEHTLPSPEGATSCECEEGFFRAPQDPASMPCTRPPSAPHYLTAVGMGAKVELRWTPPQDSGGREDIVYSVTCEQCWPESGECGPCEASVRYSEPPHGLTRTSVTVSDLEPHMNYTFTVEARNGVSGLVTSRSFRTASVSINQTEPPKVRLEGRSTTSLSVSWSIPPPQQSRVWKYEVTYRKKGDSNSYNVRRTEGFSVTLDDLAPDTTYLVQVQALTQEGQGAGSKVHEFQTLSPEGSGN
Briefly: Interaction analysis (kinetics, KD) of peptides and conjugates against EphA2 by SPR, Biacore T200, single-cycle kinetics (Examples B15 and B22). It counts as binding. The settings on record: conjugates, Biacore T200 according to Example B15, Table B16; read-out: SPR Kd. A digest of the protocol:
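Biacore T200 SPR with Fc-tagged human EphA2 captured via anti-human antibody; running buffer HBS-P+ pH 7.4 with 1% DMSO, 25 °C. Five serial dilutions of peptide or conjugate run by single-cycle kinetics; KD from ka and kd after baseline subtraction.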

Data set [2] concerns the target T2, EphA2 (Biotin-Avi-His-EphA2; Fc-EphA2 where the peptide had a biotin) (Homo sapiens, UniProt P29317).
T2 construct: His; purchased SinoBiologicals 13926-H27H-B
Nature of the data set: Surface plasmon resonance (SPR) peptide binding, Biacore 8K, immobilized EphA2, single cycle kinetics (Example C7). The following applies: 25 °C, Langmuir 1:1. As to the method:
Example C7. Surface Plasmon Resonance (SPR)
For analysis of peptide binding, a Biacore 8K instrument was used utilizing a SA chip. Biotin-Avi-His-EphA2 (SinoBiologicals, 13926-H27H-B) was immobilized on the chip using streptavidin-biotin chemistry at 25 °C in HBS-P+ buffer (10 mM HEPES, 150 mM NaCl, 0.05% Tween-20, pH 7.4) to a level of 1000-2000 RU (dependent on the analyte molecular weight). […] A dilution series of peptides was prepared in this buffer with a final DMSO concentration of 0.1% with a top peptide concentration between 10-100 nM and 9 further 2-fold dilutions. The SPR analysis was run at 25 °C at a flow rate of 30 μL/min in HBS-P+ with 0.1% DMSO running buffer and with a 120 second association and 1,200 second dissociation using single cycle kinetics methodology. All data was analyzed using Biacore Insight Evaluation Software version 4. Data was fitted using a Langmuir 1:1 binding model.

Data set [3] in a line: Plasma stability (% remaining of test compound in CD-1 (ICR) mouse plasma at 37 °C; Example C1). It counts as in vitro ADME. As to the method:
Example C1. Plasma Stability
The pooled frozen CD-1 (ICR) mouse plasma was thawed in a water bath at 37 °C prior to experiment. Plasma was centrifuged at 4000 rpm for 5 min and the clots were removed if any. pH was adjusted to 7.4±0.1 if required.
Plasma (98 μL) and test compounds (2 μL, 100 μM, in DMSO) or reference compound propantheline bromide (2 μL, 100 μM in 40% v/v MeOH/H2O) were added to the individual wells of a 96-well microtiter plate in duplicate. The plate was incubated at 37 °C. During the incubation, aliquots were withdrawn at 0, 10, 30, 60, 120, and 300 minutes. 100 μL 4% H3PO4 and 800 μL of stop solution (200 ng/mL tolbutamide and 200 ng/mL labetalol in 100% CH3CN) were added to precipitate unwanted proteins. After mixing thoroughly, the quenched aliquots were centrifuged at 4,000 rpm for 20 min. Aliquots (100 μL) of supernatant were transferred to a new plate. The samples were shaken at 800 rpm for 10 min before performing LC-MS/MS analysis.
The analytes were detected by a multiple reaction monitoring method using a SCIEX Triple Quad 6500+ system equipped with an ACQUITY UPLC HSS T3 column (100 Å, 1.8 μm, 2.1 mm×30 mm). Mobile phase A: water with 0.1% formic acid; Mobile phase B: CH3CN with 0.1% formic acid.
(§1) The % remaining of test compound after incubation in plasma was calculated using the following equation:
(§2) % Remaining=100×(PAR(t)/PAR(t0)), where PAR is the peak area ratio of analyte versus internal standard (IS)

Data set [4] is described as follows: Plasma stability (% remaining and T1/2 of test compound in human plasma; Table C1). The data set is classed as in vitro ADME. The procedure:
as §1, §2

T2 sequence (P29317 24-534 limits assumed): as above

By Kd is commonly meant the free concentration of one partner at which half of the binding sites on the other are occupied at equilibrium, for simple one-to-one binding. By amount remaining is commonly meant the share of the starting amount still present when the sample was taken. Low values mean more turnover, high ones less turnover. On to `CC(C)C[C@@H]1NC(=O)[C@H](CC(N)=O)NC(=O)[C@H](Cc2cccnc2)N(C)C(=O)[C@@H](C)NC(=O)CSC[C@@H](C(=O)N[C@H](CCCCNC(=O)CN2CCN3CCN4CCN(CC2)CC(=O)[O][Lu]([O]C(=O)C3)[O]C(=O)C4)C(N)=O)NC(=O)[C@H](CCCC(N)=O)NC(=O)[C@H]([C@@H](C)O)NC(=O)[C@H](Cc2cn(C)c3ccccc23)NC(=O)[C@H](CCCCNC(=O)N2CCN(CC(=O)O)CC2)NC(=O)[C@H](Cc2cn(C)c3ccccc23)NC(=O)[C@H](CCC(=O)O)N(C)C(=O)[C@H](CCCC(N)=O)NC1=O` [PDC_EphA2-00007196-C302] ({CH2CO}-[dA][NMe3Pal]NL[Aad](NH2)[NMeE][Trp(1-Me)]K([CO-Piperazinyl(4-CH2COOH)])[Trp(1-Me)]T[Aad](NH2)C[dK](DOTA(Lu))-NH2; thioether N-12), for which the Kd in data set [1] was < 1 nM. Also, in data set [2], the “KD” value is 3.74e-10 M⁻¹. Also, the “% Remaining Mouse” value in data set [3] (0 min) was determined as 100.0%. Also, in data set [3] (pH 7.4, 120 min), the fraction remaining at 2 h, 2 µM was determined as 99.4%. In addition, the half-life at 2 µM in data set [3] (pH 7.4, read-out: T1/2 (min) Mouse) is > 289 min. Further, the half-life in data set [4] was > 4.82 h. The “% Remaining Human” value in data set [4] (0 min) is reported as 100.0%. Moreover, the fraction remaining at 2 h in data set [4] (120 min) turned out to be 96.3%.
`C[C@@H](O)[C@@H]1NC(=O)[C@H](Cc2cn(C)c3ccccc23)NC(=O)[C@H](CCCCNC(=O)N2CCN(CC(=O)O)CC2)NC(=O)[C@H](Cc2cn(C)c3c(Cl)cccc23)NC(=O)[C@H](CCC(=O)O)N(C)C(=O)[C@H](CCCC(N)=O)NC(=O)[C@H](C2CCC2)NC(=O)[C@H](CC(N)=O)NC(=O)[C@H](Cc2cccnc2)N(C)C(=O)[C@@H](Cc2cccc(C(N)=O)c2)NC(=O)CSC[C@@H](C(=O)N[C@H](CCCCNC(=O)CN2CCN(CC(=O)O)CCN(CC(=O)O)CCN(CC(=O)O)CC2)C(N)=O)NC(=O)[C@H](CCCCNC(=N)N)NC1=O.[Lu+3]` [PDC_EphA2-00019443-C302] ({CH2CO}-[dPhe(3-CONH2)][NMe3Pal]N[Gly(cBu)][Aad](NH2)[NMeE][Trp(1-Me,7-Cl)]K([CO-Piperazinyl(4-CH2COOH)])[Trp(1-Me)]T[hArg]C[dK](DOTA)-NH2; thioether N-12): in data set [1], the Kd is < 1 nM. Moreover, the “KD” value in data set [2] was found to be 2.7e-11 M⁻¹.
On the same counts, the results for `CC(C)C[C@@H]1NC(=O)[C@H](CC(N)=O)NC(=O)[C@H](Cc2cccnc2)N(C)C(=O)[C@@H](C)NC(=O)CSC[C@@H](C(=O)N[C@H](CCCCNC(=O)CN2CCN(CC(=O)O)CCN(CC(=O)O)CCN(CC(=O)O)CC2)C(N)=O)NC(=O)[C@H](CCCCNC(=N)N)NC(=O)[C@H]([C@@H](C)O)NC(=O)[C@H](Cc2cn(C)c3ccccc23)NC(=O)[C@H](CCCCNC(=O)N2CCN(CC(=O)O)CC2)NC(=O)[C@H](Cc2cn(C)c3ccccc23)NC(=O)[C@H](CCC(=O)O)N(C)C(=O)[C@H](CCCC(N)=O)NC1=O.[Lu+3]` [PDC_EphA2-00008010-C302] ({CH2CO}-[dA][NMe3Pal]NL[Aad](NH2)[NMeE][Trp(1-Me)]K([CO-Piperazinyl(4-CH2COOH)])[Trp(1-Me)]T[hArg]C[dK](DOTA)-NH2; thioether N-12) are < 1 nM and 2.11e-10 M⁻¹.
In the case of `C[C@@H](O)[C@@H]1NC(=O)[C@H](Cc2cn(C)c3ccccc23)NC(=O)[C@H](CCCCNC(=O)N2CCN(CC(=O)O)CC2)NC(=O)[C@H](Cc2cn(C)c3c(Cl)cccc23)NC(=O)[C@H](CCC(=O)O)N(C)C(=O)[C@H](CCCC(N)=O)NC(=O)[C@H](C2CCC2)NC(=O)[C@H](CC(N)=O)NC(=O)[C@H](Cc2cccnc2)N(C)C(=O)[C@@H](Cc2cccc(C(N)=O)c2)NC(=O)CSC[C@@H](C(=O)N[C@H](CCCCNC(=O)CN2CCN(CC(=O)O)CCN(CC(=O)O)CCN(CC(=O)O)CC2)C(N)=O)NC(=O)[C@H](CCCC(N)=O)NC1=O.[Lu+3]` [PDC_EphA2-00019440-C302] ({CH2CO}-[dPhe(3-CONH2)][NMe3Pal]N[Gly(cBu)][Aad](NH2)[NMeE][Trp(1-Me,7-Cl)]K([CO-Piperazinyl(4-CH2COOH)])[Trp(1-Me)]T[Aad](NH2)C[dK](DOTA)-NH2; thioether N-12), the Kd in data set [1] was < 1 nM. Besides, the “KD” value in data set [2] is 8.18e-11 M⁻¹.
